Source: patent publication US11780845B2 (Relay Therapeutics, Inc., priority 2019, dated 2023)

Molecular target: FGFR2 (Homo sapiens (Human), UniProt P21802)
Test: FGFR2 Biochemical Caliper Assay
Protocol: Compounds of the present invention were also tested in a FGFR2 Biochemical Caliper Assay. Compounds were prepared in 10 mM DMSO solution and serially diluted into 11 concentrations by 3-fold dilution. […] 5 uL of ATP solution (100 uM) was added to start the reaction and the plate was incubated for 90 minutes, then 70 uL of stopping buffer (0.5M EDTA) was added to terminate the reaction. Each well was analyzed using EZ reader.

FGFR2, sequence (P21802 22-821): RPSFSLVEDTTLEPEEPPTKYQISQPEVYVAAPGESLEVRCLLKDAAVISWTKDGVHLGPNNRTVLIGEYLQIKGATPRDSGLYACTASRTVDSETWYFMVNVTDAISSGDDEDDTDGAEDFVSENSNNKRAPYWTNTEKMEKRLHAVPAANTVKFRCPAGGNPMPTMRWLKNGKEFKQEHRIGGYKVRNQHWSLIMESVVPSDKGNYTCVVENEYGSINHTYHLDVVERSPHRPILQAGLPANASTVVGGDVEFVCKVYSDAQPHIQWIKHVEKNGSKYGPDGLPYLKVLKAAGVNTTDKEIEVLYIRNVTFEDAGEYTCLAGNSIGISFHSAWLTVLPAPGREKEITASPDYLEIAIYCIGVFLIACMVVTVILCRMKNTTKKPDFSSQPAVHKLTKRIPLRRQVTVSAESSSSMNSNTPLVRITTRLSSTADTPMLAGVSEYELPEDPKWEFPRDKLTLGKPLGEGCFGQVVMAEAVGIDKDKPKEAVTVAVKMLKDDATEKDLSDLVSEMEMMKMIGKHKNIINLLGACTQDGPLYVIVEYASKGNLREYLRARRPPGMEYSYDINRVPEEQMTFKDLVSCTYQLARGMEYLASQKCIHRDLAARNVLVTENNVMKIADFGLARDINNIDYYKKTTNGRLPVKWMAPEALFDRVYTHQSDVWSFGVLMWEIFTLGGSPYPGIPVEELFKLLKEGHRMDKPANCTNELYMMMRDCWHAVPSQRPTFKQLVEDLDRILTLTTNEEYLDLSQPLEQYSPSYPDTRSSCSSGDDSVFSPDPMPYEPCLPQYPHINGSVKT

IC50 | SMILES
1000 to 100000 nM | C=C(C)C(=O)Nc1ccc(-c2c(-c3ccc(=O)n(C4CC4)c3)c3c(N)ncnc3n2C)cc1 [Example 275]
250 to 1000 nM | C=C(C)C(=O)Nc1ccc(-c2c(-c3ccc(-c4cc(C)no4)cc3)c3c(N)ncnc3n2C)cc1 [Example 277]
250 to 1000 nM | C=C(C)C(=O)Nc1ccc(-c2c(-c3ccc(-c4cocn4)cc3)c3c(N)ncnc3n2C)cc1 [Example 278]
100 to 250 nM | C=C(C)C(=O)Nc1ccc(-c2c(-c3ccc(-c4nc(C)c(C)o4)cc3)c3c(N)ncnc3n2C)cc1 [Example 279]
100 to 250 nM | C=C(C)C(=O)Nc1ccc(-c2c(-c3ccc(-c4nnc(NC)s4)cc3)c3c(N)ncnc3n2C)cc1 [Example 280]
1000 to 100000 nM | C=C(C)C(=O)Nc1ccc(-c2c(-c3ccc4c(ccn4S(C)(=O)=O)c3)c3c(N)ncnc3n2C)cc1 [Example 281]
1000 to 100000 nM | C=C(C)C(=O)Nc1ccc(-c2c(-c3ccc(C(=O)N(C)CCOC)cc3)c3c(N)ncnc3n2C)cc1 [Example 284]
1000 to 100000 nM | C=C(C)C(=O)Nc1ccc(-c2c(-c3ccc(C4=NNC(C)O4)nc3)c3c(N)ncnc3n2C)cc1 (stereo not shown) [Example 285]
1000 to 100000 nM | C=C(C)C(=O)Nc1ccc(-c2c(-c3ccc(-c4nnc(C(F)(F)F)o4)cc3)c3c(N)ncnc3n2C)cc1 [Example 286]
1000 to 100000 nM | C=C(C)C(=O)Nc1ccc(-c2c(-c3ccc4c(c3)C(C)N(C)C4=O)c3c(N)ncnc3n2C)cc1 (stereo not shown) [Example 287]
250 to 1000 nM | C=C(C)C(=O)Nc1ccc(-c2c(-c3ccc(S(=N)(=O)N4CCCC4)cc3)c3c(N)ncnc3n2C)cc1 (stereo not shown) [Example 317]
< 100 nM | C=C(C)C(=O)Nc1ccc(-c2c(-c3ccc(C(=O)NC(C)CO)cc3)c3c(N)ncnc3n2C)cc1 (stereo not shown) [Example 319]
250 to 1000 nM | C=C(C)C(=O)Nc1ccc(-c2c(-c3ccc(C(=O)NCCO)cc3)c3c(N)ncnc3n2C)cc1 [Example 322]
100 to 250 nM | C=C(C)C(=O)Nc1ccc(-c2c(-c3ccc(C(=O)NCC4CC(O)C4)cc3)c3c(N)ncnc3n2C)cc1 (stereo not shown) [Example 323]
1000 to 100000 nM | C=C(C)C(=O)Nc1ccc(-c2c(-c3ccc(S(=O)(=O)NC4CCCC4)cc3)c3c(N)ncnc3n2C)cc1 [Example 325]
1000 to 100000 nM | C=C(C)C(=O)Nc1ccc(-c2c(-c3ccc(S(=O)(=O)NCC(F)(F)F)cc3)c3c(N)ncnc3n2C)cc1 [Example 326]
250 to 1000 nM | C=C(C)C(=O)Nc1ccc(-c2c(-c3ccc(C(=O)NC4CC(O)C4)cc3)c3c(N)ncnc3n2C)cc1 (stereo not shown) [Example 328]
100 to 250 nM | C=C(C)C(=O)Nc1ccc(-c2c(-c3ccc(C(=O)NC4CC(CO)C4)cc3)c3c(N)ncnc3n2C)cc1 (stereo not shown) [Example 330]
100 to 250 nM | C=C(C)C(=O)Nc1ccc(-c2c(-c3ccc(C(=O)NCCCOC)cc3)c3c(N)ncnc3n2C)cc1 [Example 333]
250 to 1000 nM | C=C(C)C(=O)Nc1ccc(-c2c(-c3ccc(C(=O)NCC4CNC4)cc3)c3c(N)ncnc3n2C)cc1 [Example 334]
100 to 250 nM | C=C(C)C(=O)Nc1ccc(-c2c(-c3ccc(C(=O)NCCCO)cc3)c3c(N)ncnc3n2C)cc1 [Example 336]
< 100 nM | C=C(C)C(=O)Nc1ccc(-c2c(-c3ccc(Oc4cccc(C#N)n4)cc3)c3c(N)ncnc3n2C)cc1 [Example 345]
< 100 nM | C=C(C)C(=O)Nc1ccc(-c2c(-c3ccc(C(=O)NCC4(O)CCC4)cc3)c3c(N)ncnc3n2C)cc1 [Example 347]

IC50 | SMILES
< 100 nM | C=C(C)C(=O)Nc1ccc(-c2c(-c3ccc(C(=O)NCC4(C)CC4)cc3)c3c(N)ncnc3n2C)cc1 [Example 349]
1000 to 100000 nM | C=C(C)C(=O)Nc1ccc(-c2c(-c3ccc(S(=N)(=O)NC4CCCC4)cc3)c3c(N)ncnc3n2C)cc1 (stereo not shown) [Example 350]
100 to 250 nM | C=C(C)C(=O)Nc1ccc(-c2c(-c3ccc(C(=O)N4CCC[C@@H]4C#N)cc3)c3c(N)ncnc3n2C)cc1 [Example 356]
< 100 nM | C=C(C)C(=O)Nc1ccc(-c2c(-c3ccc(C(=O)NC4CCNC4)cc3)c3c(N)ncnc3n2C)cc1 (stereo not shown) [Example 358]
< 100 nM | C=C(C)C(=O)Nc1ccc(-c2c(-c3ccc(C(=O)N4CCC[C@H]4C#N)cc3)c3c(N)ncnc3n2C)cc1 [Example 359]
< 100 nM | C=C(C)C(=O)Nc1ccc(-c2c(-c3ccc(C(=O)NCC4(C#N)CC4)cc3)c3c(N)ncnc3n2C)cc1 [Example 360]
< 100 nM | C=C(C)C(=O)Nc1ccc(-c2c(-c3ccc(C(=O)NCCF)cc3)c3c(N)ncnc3n2C)cc1 [Example 363]
< 100 nM | C=C(C)C(=O)Nc1ccc(-c2c(-c3ccc(C(=O)NC4CC(F)C4)cc3)c3c(N)ncnc3n2C)cc1 (stereo not shown) [Example 364]
100 to 250 nM | C=C(C)C(=O)Nc1ccc(-c2c(-c3ccc(C(=O)NCC4COC4)cc3)c3c(N)ncnc3n2C)cc1 [Example 366]
250 to 1000 nM | C=C(C)C(=O)Nc1ccc(-c2c(-c3ccc(C(=O)NCCC4COC4)cc3)c3c(N)ncnc3n2C)cc1 [Example 367]
100 to 250 nM | C=C(C)C(=O)Nc1ccc(-c2c(-c3ccc(C(=O)NC4CCN(C)C4=O)cc3)c3c(N)ncnc3n2C)cc1 (stereo not shown) [Example 389]
1000 to 100000 nM | C=C(C)C(=O)Nc1ccc(-c2c(-c3ccc(C(=O)N(C)C4CCN(C)C4=O)cc3)c3c(N)ncnc3n2C)cc1 (stereo not shown) [Example 390]
1000 to 100000 nM | C=C(C)C(=O)Nc1ccc(-c2c(-c3ccc(C(=O)NCC4COCCN4C)cc3)c3c(N)ncnc3n2C)cc1 (stereo not shown) [Example 392]
250 to 1000 nM | C=C(C)C(=O)Nc1ccc(-c2c(C3=CCC(C(=O)NCC(C)(C)OC)CC3)c3c(N)ncnc3n2C)cc1 (stereo not shown) [Example 394]
100 to 250 nM | C=C(C)C(=O)Nc1ccc(-c2c(-c3ccc(C(=O)NC4CCOC4)c(F)c3)c3c(N)ncnc3n2C)cc1 (stereo not shown) [Example 396]
100 to 250 nM | C=C(C)C(=O)Nc1ccc(-c2c(-c3ccc(C(=O)NC4CCOC4)c(OC)c3)c3c(N)ncnc3n2C2COC2)cc1 (stereo not shown) [Example 400]
100 to 250 nM | C=C(C)C(=O)Nc1ccc(-c2c(C3=CCC(C(=O)NCC4CCC4)CC3)c3c(N)ncnc3n2C)cc1 (stereo not shown) [Example 402]
100 to 250 nM | C=C(C)C(=O)Nc1ccc(-c2c(-c3ccc(Oc4cccc(C)n4)cc3)c3c(N)ncnc3n2C)cc1COC [Example 403]
100 to 250 nM | C=C(C)C(=O)Nc1ccc(-c2c(C3=CCC(C(=O)N4CCCC[C@@H]4C)CC3)c3c(N)ncnc3n2C)cc1 (stereo partly shown) [Example 404]
< 100 nM | Cc1cccc(Oc2ccc(-c3c(-c4cnc(C#N)nc4)n(C)c4ncnc(N)c34)cc2)n1 [Example 405]
1000 to 100000 nM | C=C(C)C(=O)Nc1ccc(-c2c(-c3ccc(C(=O)N4CCCC4)cc3)c3c(N)ncnc3n2C)cc1C [Example 407]
< 100 nM | C=C(C)C(=O)Nc1ccc(-c2c(-c3ccc(C(=O)N(C)C(CF)CF)cc3)c3c(N)ncnc3n2C)cc1 [Example 412]
100 to 250 nM | C=C(C)C(=O)N(C)c1ccc(-c2c(-c3ccc(Oc4cccc(C)n4)cc3)c3c(N)ncnc3n2C)cc1 [Example 414]

IC50 | SMILES
1000 to 100000 nM | C=C(C)C(=O)Nc1ccc(-c2c(C3=CC[C@H](C(=O)N4CC5CCC(C5)C4)CC3)c3c(N)ncnc3n2C)cc1 [Example 420]
1000 to 100000 nM | C=C(C)C(=O)N(C)c1ccc(-c2c(-c3ccc(C(=O)NCC(C)(C)OC)cc3)c3c(N)ncnc3n2C)cc1 [Example 421]
1000 to 100000 nM | C=C(C)C(=O)Nc1ccc(-c2c(-c3ccc(C(=O)N4CCCC4)nc3)c3c(N)ncnc3n2C)cc1 [Example 422]
250 to 1000 nM | C=C(C)C(=O)Nc1ccc(-c2c(-c3ccc(C(=O)N(CCN)CC(F)(F)F)cc3)c3c(N)ncnc3n2C)cc1 [Example 430]
1000 to 100000 nM | C=C(C)C(=O)Nc1ccc(-c2c(-c3ccc(C(=O)NCC(C)(C)OC)nc3)c3c(N)ncnc3n2C)cc1 [Example 438]
1000 to 100000 nM | C=C(C)C(=O)Nc1ccc(-c2c(-c3cnn(Cc4cccc(C)n4)c3)c3c(N)ncnc3n2C)cc1 [Example 439]
1000 to 100000 nM | C=C(C)C(=O)Nc1ccc(-c2c(-c3ccc(C(=O)N(C)CC4(OC)CC4)cc3)c3c(N)ncnc3n2C)cc1 [Example 440]
1000 to 100000 nM | C=C(C)C(=O)Nc1ccc(-c2c(-c3ccc(Oc4ncc(F)cn4)c(N(C)C)c3)c3c(N)ncnc3n2C)cc1 [Example 443]
250 to 1000 nM | C=C(C)C(=O)Nc1ccc(-c2c(-c3ccc(Oc4ncc(OC)cn4)cc3)c3c(N)ncnc3n2C)cc1 [Example 450]
1000 to 100000 nM | C=C(C)C(=O)Nc1ccc(-c2c(-c3ccc(Oc4ncc(F)cn4)nc3)c3c(N)ncnc3n2C)cc1 [Example 453]
250 to 1000 nM | C=C(C)C(=O)Nc1ccc(-c2c(-c3ccc(C(=O)N(CCN(C)C)CC(F)(F)F)cc3)c3c(N)ncnc3n2C)cc1 [Example 454]
250 to 1000 nM | C=C(C)C(=O)Nc1ccc(-c2c(-c3ccc(Oc4ncc(N(C)C)cn4)c(F)c3)c3c(N)ncnc3n2C)cc1 [Example 455]
250 to 1000 nM | C=C(C)C(=O)Nc1ccc(-c2c(-c3ccc(Oc4ncc(N(C)C)cn4)cc3)c3c(N)ncnc3n2C)cc1 [Example 456]
100 to 250 nM | C=C(C)C(=O)Nc1ccc(-c2c(-c3ccc(C(=O)NCC4CCC4)c(C(C)=O)c3)c3c(N)ncnc3n2C)cc1 [Example 457]
100 to 250 nM | C=C(C)C(=O)Nc1ccc(-c2c(-c3ccc(C(=O)N(C)CC4(F)COC4)cc3)c3c(N)ncnc3n2C)c(F)c1 [Example 467]
250 to 1000 nM | C=C(C)C(=O)Nc1ccc(-c2c(-c3ccc(C(=O)N(C)CC4CCOC4)cc3)c3c(N)ncnc3n2C)cc1 (stereo not shown) [Example 469]
100 to 250 nM | C=C(C)C(=O)Nc1ccc(-c2c(-c3cc(F)c(C(=O)NCC(C)(C)OC)c(F)c3)c3c(N)ncnc3n2C)cc1 [Example 470]
100 to 250 nM | C=C(C)C(=O)Nc1ccc(-c2c(-c3ccc(C(=O)N4CCCC4)cc3)c3c(N)ncnc3n2C)c(CC)c1 [Example 477]
100 to 250 nM | C=C(C)C(=O)Nc1ccc(-c2c(-c3ccc(C(=O)N4CCCC4)cc3)c3c(N)ncnc3n2C)c(C2CC2)c1 [Example 478]
250 to 1000 nM | C=C(C)C(=O)Nc1ccc(-c2c(-c3cnc(Oc4cccc(C)n4)cn3)c3c(N)ncnc3n2C)cc1 [Example 480]
1000 to 100000 nM | C=C(C)C(=O)Nc1ccc(-c2c(-c3ccc(C(=O)N(C)Cc4ncno4)cc3)c3c(N)ncnc3n2C)cc1 [Example 481]
